Results published in PMC10649008 (Antimicrobial Agents and Chemotherapy, 2023).
Where “and” joins values, the source holds several entries; their conditions need not be identical. Equal entries are not always repeated. Where two headings read alike, the source gives them in different places.

Experiments:
[1] = From the text: All study procedures were reviewed and approved by the respective Institutional Review Board for each study site. Prior to any study procedures, written informed consent from a parent or legal guardian and assent (if appropriate for older patients) were obtained. The patient population consisted of subjects aged >12 months to <17 years of age who required systemic antibiotic therapy for the treatment or prevention of known or suspected bacterial infection. Subjects were enrolled into four cohorts stratified by age: adolescents (12–17 years of age), older children (6–11 years of age), younger children (2–5 years of age), and infants (1–2 years of age). […] The study consisted of a screening period followed by a treatment period and a safety follow-up period through Day 8 ± 1 day.
(§1) Safety was monitored during both the screening and treatment periods by physical exams, vital signs, urinalysis, and clinical laboratory measures (complete blood count with differential, serum chemistry, creatinine, and liver enzymes); AEs and concomitant medications were recorded from screening through follow-up on Day 8 (± 1 day). Medical and medication history and demographics were collected at screening. Vital signs (heart rate, blood pressure, respiratory rate, and body temperature) were collected at screening, Days 1 and 2 of the study.

[2] = post-dose, single 10 mg/kg IV
Protocol: as §1

[3] = Healthy adults, N = 42, single 10 mg/kg IV dose, mean ± SD, cited from earlier work
[4] = five courses in three adolescent cystic fibrosis patients; 8.7–10 mg/kg daily for up to 3 weeks; cited from earlier work
[5] = all cohorts, three of 22 subjects, single 10 mg/kg IV
[6] = all cohorts, two of 22 subjects, single 10 mg/kg IV

With `CCCCCCCCCCNCCN[C@@]1(C)C[C@H](O[C@H]2[C@H](Oc3c4cc5cc3Oc3ccc(cc3Cl)[C@@H](O)[C@@H](NC(=O)[C@@H](CC(C)C)NC)C(=O)N[C@@H](CC(N)=O)C(=O)N[C@H]5C(=O)N[C@H]3C(=O)N[C@H](C(=O)N[C@H](C(=O)O)c5cc(O)c(CNCP(=O)(O)O)c(O)c5-c5cc3ccc5O)[C@H](O)c3ccc(c(Cl)c3)O4)O[C@H](CO)[C@@H](O)[C@@H]2O)O[C@@H](C)[C@H]1O` [telavancin] the “Number of adverse events moderate in severity” value ([1]; Cohort 2 (6–11 years), of 11 AEs, single 10 mg/kg IV) was “two”, the “Adverse events considered probably related to telavancin administration” value ([1]; Cohort 2 (6–11 years), six of the 11 events) was 55% and the Adverse events ([1]; Cohort 3 (2–5 years), single subject, single 10 mg/kg IV) was “No AEs were reported”. The “Subjects with adverse events” value ([1]; all cohorts, 10 of the 22 subjects, single 10 mg/kg IV, through Day 8 ± 1) was 45%, the “Total number of adverse events (AEs)” value ([1]; all cohorts, 22 subjects 2–17 years, single 10 mg/kg IV, through Day 8 ± 1) was 27 and the Serious adverse events ([1]; all cohorts, 22 subjects, single 10 mg/kg IV) was “no serious AEs”. The Subjects with nausea ([1]; all cohorts, four of 22 subjects, single 10 mg/kg IV) was 18%, the “Subjects with foamy urine” value [1, 5] was 14% and the “Subjects with taste disturbance/metallic taste” value [1, 5] was 14%. The Subjects with dizziness [1, 6] was 9%, the Subjects with headache [1, 6] was 9% and the “Tolerability of a single dose” value ([1]; all pediatric age cohorts, single 10 mg/kg IV) was “well-tolerated”. For the same compound, the “QT interval (12-lead ECG)” value ([1]; one subject in Cohort 2 (6–11 years), ECG 1.5–2.5 h after start of infusion, moderate, resolved prior to Day 8) was “prolonged QT interval”, the Infusion reactions ([1]; single 10 mg/kg infusion administered over an hour, all cohorts) was “no infusion reactions” and the “Clinically significant abnormalities following telavancin administration” value ([1]; worsened ALT and LDH in one Cohort 1 subject, prolonged QT in one Cohort 2 subject, moderate, resolved prior to Day 8) was “three”. The Creatinine ([2]; Cohort 1 (12 to 17 years), 9 subjects, pre-dose 0.6 ± 0.2 (N = 14)) was 1.0 ± 1.1 mg/dL, the Total bilirubin ([2]; Cohort 1 (12 to 17 years), 9 subjects, pre-dose 0.6 ± 0.3 (N = 14)) was 0.3 ± 0.2 mg/dL and the Leukocytes ([2]; Cohort 1 (12 to 17 years), 9 subjects, pre-dose 10.3 ± 3.1 (N = 14)) was 7.3 ± 2.0 x10^9/L. The Hemoglobin ([2]; Cohort 1 (12 to 17 years), 9 subjects, pre-dose 12.2 ± 1.7 (N = 14)) was 12.1 ± 1.4 g/dL, the Alanine aminotransferase ([2]; Cohort 1 (12 to 17 years), 9 subjects, pre-dose 25.9 ± 15.1 (N = 14)) was 37.4 ± 24.2 IU/L and the Aspartate aminotransferase ([2]; Cohort 1 (12 to 17 years), 9 subjects, pre-dose 50.9 ± 56.2 (N = 14)) was 72.8 ± 72.0 IU/L. For the same compound, the Platelets ([2]; Cohort 1 (12 to 17 years), 9 subjects, pre-dose 226 ± 69.1 (N = 14)) was 236 ± 85.9 x10^9/L, the Lactate dehydrogenase ([2]; Cohort 1 (12 to 17 years), 9 subjects, pre-dose 361 ± 247 (N = 14)) was 439 ± 270 IU/L and the Creatinine ([2]; Cohort 2 (6 to 11 years), 6 subjects, pre-dose 0.4± 0.1 (N = 7)) was 0.4 ± 0.1 mg/dL. For the same compound, the Total bilirubin ([2]; Cohort 2 (6 to 11 years), 6 subjects, pre-dose 0.6 ± 0.5 (N = 7)) was 0.5 ± 0.3 mg/dL, the Leukocytes ([2]; Cohort 2 (6 to 11 years), 6 subjects, pre-dose 8.3 ± 3.0 (N = 7)) was 6.3 ± 1.3 x10^9/L and the Hemoglobin ([2]; Cohort 2 (6 to 11 years), 6 subjects, pre-dose 11.7 ± 1.4 (N = 7)) was 11.9 ± 1.4 g/dL. The Alanine aminotransferase ([2]; Cohort 2 (6 to 11 years), 6 subjects, pre-dose 30.9 ± 12.2 (N = 7)) was 36.8 ± 19.4 IU/L, the Aspartate aminotransferase ([2]; Cohort 2 (6 to 11 years), 6 subjects, pre-dose 41.6 ± 26.0 (N = 7)) was 46.7 ± 40.7 IU/L and the Platelets ([2]; Cohort 2 (6 to 11 years), 6 subjects, pre-dose 267 ± 73.6 (N = 7)) was 289 ± 105.5 x10^9/L. For the same compound, the Creatinine ([2]; Cohort 3 (2 to 5 years), N = 1, pre-dose 0.2 ± 0.0) was 0.2 ± 0.0 mg/dL, the Total bilirubin ([2]; Cohort 3 (2 to 5 years), N = 1, pre-dose 0.4 ± 0.0) was 0.4 ± 0.0 mg/dL and the Leukocytes ([2]; Cohort 3 (2 to 5 years), N = 1, pre-dose 4.6 ± 0.0) was 7.5 ± 0.0 x10^9/L. It also gave a Hemoglobin ([2]; Cohort 3 (2 to 5 years), N = 1, pre-dose 10.0 ± 0.0) of 10.3 ± 0.0 g/dL, an Aspartate aminotransferase ([2]; Cohort 3 (2 to 5 years), N = 1, pre-dose 41.0 ± 0.0) of 37.0 ± 0.0 IU/L and an Alanine aminotransferase ([2]; Cohort 3 (2 to 5 years), N = 1, pre-dose 72.0 ± 0.0) of 62.0 ± 0.0 IU/L. For the same compound, the Platelets ([2]; Cohort 3 (2 to 5 years), N = 1, pre-dose 148 ± 0.0) was 195 ± 0.0 x10^9/L, the Lactate dehydrogenase ([2]; Cohort 3 (2 to 5 years), N = 1, pre-dose 477 ± 0.0) was 480 ± 0.0 IU/L and the “AUC0-inf (area under the curve extrapolated to infinity)” value ([3]; 10 mg/kg) was 747 µg·h/mL and 747 ± 129 µg·h/mL. For the same compound, the “T 1/2 (terminal elimination half-life)” value ([3]; 10 mg/kg) was 8.0 h and 8.0 ± 1.5 h, the “C max (maximum plasma concentration)” value [3] was 93.6 ± 14.2 µg/mL and the “CL (clearance)” value [3] was 0.0139 ± 0.0029 L/h/kg. For the same compound, the “Serum creatinine across courses of treatment” value [4] was “remained stable”.
